In PubChem BioAssay AID256 (DTP/NCI, 2004):
Several values for one entry are separate records, joined by “and”; a condition that tells them apart may be missing. Identical values can stand only once. Toxic doses and inconclusive results are not listed. The calls were made as follows: active = survival T/C of 150% or more; inactive = T/C below 125% in these data.

Tested on: CD2F1 mice, L1210 leukemia ip, survival T/C
Assay: NCI In Vivo Anticancer Drug Screen. Data for tumor model L1210 Leukemia (intraperitoneal) in CD2F1 (CDF1) mice
Conditions: endpoint: mean survival time, higher = longer survival
Outline: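 Antitumor effect is scored in animals hosting a serially transplanted tumor. Values compare compound-dosed animals against vehicle-only controls as a simple quotient.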

[1] = dose: 100.0 mg/kg/injection, schedule: Q01DX009 (ip), vehicle: saline with Tween-80
[2] = dose: 100.0 mg/kg/injection, schedule: Q04DX003 (ip), vehicle: saline with Tween-80
[3] = dose: 200.0 mg/kg/injection, schedule: Q01DX009 (ip), vehicle: saline with Tween-80
[4] = dose: 200.0 mg/kg/injection, schedule: Q04DX003 (ip), vehicle: saline with Tween-80
[5] = dose: 400.0 mg/kg/injection, schedule: Q04DX003 (ip), vehicle: saline with Tween-80
[6] = dose: 100.0 mg/kg/injection, schedule: Q01DX009 (ip), vehicle: saline
[7] = dose: 200.0 mg/kg/injection, schedule: Q01DX009 (ip), vehicle: saline
[8] = dose: 400.0 mg/kg/injection, schedule: Q01DX009 (ip), vehicle: saline
[9] = dose: 100.0 mg/kg/injection, schedule: Q04DX003 (ip), vehicle: saline
[10] = dose: 200.0 mg/kg/injection, schedule: Q04DX003 (ip), vehicle: saline
[11] = dose: 400.0 mg/kg/injection, schedule: Q04DX003 (ip), vehicle: saline
[12] = dose: 50.0 mg/kg/injection, schedule: Q01DX009 (ip), vehicle: saline
[13] = dose: 400.0 mg/kg/injection, schedule: Q01DX009 (ip), vehicle: saline with Tween-80
[14] = dose: 50.0 mg/kg/injection, schedule: Q01DX009 (ip), vehicle: saline with Tween-80
[15] = dose: 100.0 mg/kg/injection, schedule: Q01DX001 (ip), vehicle: saline with Tween-80
[16] = dose: 200.0 mg/kg/injection, schedule: Q01DX001 (ip), vehicle: saline with Tween-80

Measured: T/C

O=C(O)C1C2C=CC(O2)C1CO (stereo not drawn)
inactive: dose: 25.0 mg/kg/injection, schedule: Q04DX002 (ip), vehicle: saline 103 % of control | dose: 50.0 mg/kg/injection, schedule: Q04DX002 (ip), vehicle: saline 100 % of control | dose: 100.0 mg/kg/injection, schedule: Q04DX002 (ip), vehicle: saline 100 % of control

CC1(C)C(CC(=O)O)CC1C(=O)O (stereo not drawn)
inactive: [1] 98 % of control | [2] 100 % of control | [3] 98 % of control | [4] 96 % of control | [5] 100 % of control

Cc1ccn(C)c(=O)c1
inactive: [6] 103 % of control | [7] 104 % of control | [8] 101 % of control

O=C1CCC(=O)N1CCC1=NCCc2ccccc21
inactive: [2] 100 % of control | [4] 96 % of control | [5] 100 % of control

C=CCNC(=O)/C=C/C(=O)O
inactive: [9] 97 % of control | [10] 97 % of control | [11] 103 % of control

CCCCC1(C2CCCC2)NC(C)(C)CC(C)O1 (stereo not drawn)
inactive: [9] 97 % of control | [10] 96 % of control | [11] 89 % of control

NC(CCC(=O)c1ccccn1)C(=O)O (stereo not drawn)
inactive: [12] 96 % of control | [6] 96 % of control | [9] 96 % of control | [7] 100 % of control | [10] 98 % of control

C/C(=N/NC(=O)c1ccccc1)c1ccc(O)cc1
inactive: [1] 96 % of control | [2] 96 % of control | [3] 97 % of control | [4] 98 % of control | [13] 91 % of control | [5] 100 % of control

O=S1(=O)OCCC1C(O)(c1ccccc1)c1ccccc1 (stereo not drawn)
inactive: dose: 75.0 mg/kg/injection, schedule: Q01DX009 (ip), vehicle: saline 97 % of control | dose: 75.0 mg/kg/injection, schedule: Q04DX003 (ip), vehicle: saline 100 % of control | dose: 150.0 mg/kg/injection, schedule: Q01DX009 (ip), vehicle: saline 103 % of control | dose: 150.0 mg/kg/injection, schedule: Q04DX003 (ip), vehicle: saline 97 % of control | dose: 300.0 mg/kg/injection, schedule: Q01DX009 (ip), vehicle: saline 100 % of control | dose: 300.0 mg/kg/injection, schedule: Q04DX003 (ip), vehicle: saline 97 % of control

CC(=O)OC1C(O)C(O)C(OC(C)=O)C(OC(C)=O)C1OC(C)=O (stereo not drawn)
inactive: [6] 102 % of control | [7] 102 % of control | [8] 98 % of control

CC(=O)Nc1ccc2c(c1)C(P(=O)(OC(C)C)OC(C)C)c1ccccc1-2 (stereo not drawn)
inactive: [2] 95 % of control | [4] 95 % of control | [5] 92 % of control

O=C(O)c1cccnc1[N+](=O)[O-]
inactive: [14] 98 % of control | [15] 93 % of control | [1] 94 % of control | [16] 93 % of control | [3] 96 % of control

C[N+](C)(C)CC1CCCC1
inactive: dose: 5.0 mg/kg/injection, schedule: Q01DX001 (ip), vehicle: saline 97 % of control | dose: 10.0 mg/kg/injection, schedule: Q01DX001 (ip), vehicle: saline 102 % of control | dose: 20.0 mg/kg/injection, schedule: Q01DX001 (ip), vehicle: saline 103 % of control | dose: 40.0 mg/kg/injection, schedule: Q01DX001 (ip), vehicle: saline 103 % of control

O=C(Nc1ccccc1F)Nc1cccc2ccccc12
inactive: [2] 98 % of control | [4] 101 % of control | [5] 96 % of control

Cn1c(C[N+](C)(C)C)cc2ccccc21
inactive: [12] 90 % of control | [6] 93 % of control

CCCC(O)C1CCCCC1O (stereo not drawn)
inactive: [1] 92 % of control | [3] 92 % of control | [13] 96 % of control

Cc1cc2c(ccc3c2ccc2cccc(C)c23)c2ccccc12
inactive: dose: 75.0 mg/kg/injection, schedule: Q01DX001 (ip), vehicle: saline 95 % of control | dose: 150.0 mg/kg/injection, schedule: Q01DX001 (ip), vehicle: saline 88 % of control | dose: 300.0 mg/kg/injection, schedule: Q01DX001 (ip), vehicle: saline 94 % of control

COc1ccc2c(c1OC)C1C3CC=CC3C2C2=[N+]1CCc1cc3c(cc12)OCO3 (stereo not drawn)
inactive: dose: 12.5 mg/kg/injection, schedule: Q04DX003 (ip), vehicle: saline 97 % of control | dose: 25.0 mg/kg/injection, schedule: Q04DX003 (ip), vehicle: saline 104 % of control | [9] 97 % of control

Cc1ccc(C#N)cn1
inactive: [1] 101 % of control | dose: 100.0 mg/kg/injection, schedule: Q04DX003 (ip), vehicle: saline sonified 96 % of control | [3] 97 % of control | dose: 200.0 mg/kg/injection, schedule: Q04DX003 (ip), vehicle: saline sonified 96 % of control | [13] 90 % of control | dose: 400.0 mg/kg/injection, schedule: Q04DX003 (ip), vehicle: saline sonified 89 % of control

Nc1nc2c(ncn2-c2ccc3oc4ccccc4c3c2)c(=O)[nH]1
inactive: [15] 93 % of control and 108 % of control | dose: 100.0 mg/kg/injection, schedule: Q04DX002 (ip), vehicle: saline with Tween-80 101 % of control | [16] 89 % of control and 97 % of control | dose: 200.0 mg/kg/injection, schedule: Q04DX002 (ip), vehicle: saline with Tween-80 97 % of control | dose: 400.0 mg/kg/injection, schedule: Q01DX001 (ip), vehicle: saline with Tween-80 89 % of control and 101 % of control | dose: 400.0 mg/kg/injection, schedule: Q04DX002 (ip), vehicle: saline with Tween-80 108 % of control

CC(=O)OCC1OC(N2C(=O)/C(=C/c3ccc([N+](=O)[O-])cc3)SC2=S)C(OC(C)=O)C(OC(C)=O)C1OC(C)=O (stereo not drawn)
inactive: dose: 0.78 mg/kg/injection, schedule: Q01DX005 (ip), vehicle: distilled water + Tween-80 96 % of control | dose: 1.56 mg/kg/injection, schedule: Q01DX005 (ip), vehicle: distilled water + Tween-80 93 % of control | dose: 3.13 mg/kg/injection, schedule: Q01DX005 (ip), vehicle: distilled water + Tween-80 93 % of control | dose: 6.25 mg/kg/injection, schedule: Q01DX005 (ip), vehicle: distilled water + Tween-80 90 % of control | dose: 12.5 mg/kg/injection, schedule: Q01DX005 (ip), vehicle: distilled water + Tween-80 93 % of control

CC1=CCC(C(C)(C)c2ccc(O)cc2)CC1 (stereo not drawn)
inactive: dose: 25.0 mg/kg/injection, schedule: Q01DX009 (ip), vehicle: saline with Tween-80 94 % of control | [14] 110 % of control | [1] 98 % of control | [2] 90 % of control | [3] 96 % of control | [4] 104 % of control | [5] 90 % of control

C1=C(Nc2ccccc2)C(=Nc2ccccc2)C=C(Nc2ccccc2)C1=Nc1ccccc1
inactive: dose: 25.0 mg/kg/injection, schedule: Q04DX003 (ip), vehicle: saline with Tween-80 96 % of control | dose: 50.0 mg/kg/injection, schedule: Q04DX003 (ip), vehicle: saline with Tween-80 96 % of control | [2] 98 % of control
